The test has as its system DMS114 SCLC xenograft. An excerpt: • (i) Compound Formulation: Compound 1 was formulated as a wet-milled nanosuspension (24 hr milling in 2.5% w/v polyvinyl pyrrolidone (PVP), 0.5% w/v Macrogol 15 Hydroxystearate (Kolliphor HS15) aqueous, with <1 μm particle-size distribution (PSD; ˜650 nm median diameter (d50)) for oral gavage administration. • (ii) Cell Implant, Compound Dosing and Tissue Collection: Immune deficient female mice with a severe combined immunodeficiency (SCID) mutation in a non-obese diabetic background (NOD SCID; 6 to 8 week old; NOD.CB17-Prkdcscid/NCrCrl from Charles River Laboratories) received a subcutaneous (SC) implant of 7.5×10^6 DMS114 cells (in 1:1 matrigel (Trevigen, Cultrex BME Path Clear®, Lot #: 30625F14), total volume 200 μl) into the right flank. Tumor volume and body weight were measured twice a week. On Day 20 post implant, 64 mice were randomized, based on tumor size at a geometric mean (geomean) of about 160 mm^3, into 6 groups corresponding to dose (Table 1). Compounds were administered at 10 ml/kg by oral gavage (Compound 1; BID ( 7/17 hours apart)) or intraperitoneal injection (cisplatin), respectively. The cisplatin dosing schedule was once a week for 3 weeks (Q7Dx3) and started 7 days after the randomization and treatment initiation with Compound 1.
On Day 55, study groups 1, 2, 3 and 4 were terminated (Table 1). Tumor (snap frozen) samples were collected at 4 hours post last dose for pharmacodynamic (PD) analysis. […] Tumor samples from groups 5 and 6 were collected 3 hours post last dose depending on available tumor sizes. All procedures performed on these animals were in accordance with regulations and established guidelines and were reviewed and approved by Pfizer's Institutional Animal Care and Use Committee. • (iii) Data Interpretation: For each experiment, calculations were performed and graphs created in Microsoft Excel and GraphPad Prism version 7.02 respectively. The tumor volume was calculated as 0.5×length×width^2. Tumor growth inhibition (TGI) was determined by the formula: % TGI=[1−(Vtx−Vt0/Vcx−Vc0)]×100, where Vc, Vt are the geometric means of control and treated groups. X=day X on study and 0=initial day of dosing. ELISA Assay: • (i) Histone Extraction: Histone extraction was performed using the EpiQuick Histone Extraction Kit (Epigentek OP0006). Frozen tumor samples were cut and homogenized using cold mortar and pestle on dry-ice. The homogenized mixture was transferred to a 1.5 mL tube in 1× Pre-Lysis Buffer (200 mg/mL) containing phenylmethylsulfonyl fluoride (PMSF). Samples were gently mixed, incubated on ice for 15 minutes, and spun down at 3,000 rpm for 5 minutes at 4° C. The tissue pellet was resuspended in 3 volumes (approximately 200 μL per 100 mg of tissue) of lysis buffer from the Histone Extraction Kit, incubated on ice for 30 minutes, and spun down at 12,000 rpm for 5 minutes at 4° C. Balance-DTT buffer was prepared by adding DTT Solution to balance buffer at a 1:500 ratio. The supernatant (containing acid soluble proteins) was transferred to a new 1.5 mL tube and 0.3 volumes of Balance-dithiothreitol (DTT) buffer from the Histone Extraction Kit were immediately added to each sample. The tumor lysate was briefly sonicated for 4 cycles (30 seconds on and 30 seconds off) at high intensity using the Bioruptor Plus (Diagenode #601020001). Extracts were aliquoted and stored at −20° C. (short term) or −80° C. (long term). Protein concentration was quantified using the Coomassie Plus (Bradford) Assay Kit (Thermo #23236). • (ii) H3K27Me3 and Me2 ELISA Assay: Histone extracts were diluted to a final concentration of 400 ng (or 800 ng) in 100 μL of coating buffer (phosphate buffered saline (PBS) containing 0.05% bovine serum albumin (BSA)).

Regarding `N.N.[Cl][Pt][Cl]` [cisplatin, reference compound], where the note is “Compound 1 100 mg/kg BID PO, cisplatin 4 mg/kg IP Q7Dx3, alone or combined”, the “TGI by Day 55” value came to 51%. Further, the “tumors regressed or progressed compared to the starting tumor burden” value (Day 55, Compound 1 100 mg/kg BID, cisplatin 4 mg/kg Q7Dx3) is given as “all tumors had progressed”. In addition, the “tumor regression sustained after cisplatin discontinuation” value (post Day 55, Compound 1 maintenance dosing in combination arm, no further treatment in cisplatin arm) is given as “progressed”. Besides, the “survival benefit, Log-rank test (Mantel-Cox)” value (survival cut-off at 500 mm^3 tumor burden) was “did not reach the P<0.05 significance level”. Moreover, the median survival (survival cut-off at 500 mm^3 tumor burden, Compound 1 100 mg/kg BID, cisplatin 4 mg/kg Q7Dx3) is 37.5 days.
